# Experiments:
# [1] = test system: AP24; assay: Etoposide-induced activation of AP24 (AAPVase) in HL-60 and PW leukemia lines; type: cell-based, human; conditions: for AP24 Activity (AAPVase, nmol/mg/hr): etoposide 50 μM + W-188 5 μg/ml, 3 h
# [2] = test system: RIF-1 fibrosarcoma; assay: RIF-1 fibrosarcoma tumor growth in vivo; parameters: species or system mice; conditions: for Effect on tumor growth: five i.p. injections
# From the text: The present study tested in the ability of W-188 to synergize with Dox and inhibit tumor growth in vivo. The RIF-1 fibrosarcoma model was used because this model has been well-characterized, and naturally expresses high Bcl-2 levels and has a consistent growth pattern (Nahabedian, M. Y., et al., J. Natl. Can. Inst., 1988, 80:739; Chang, M-J., et al., Cancer Res., 1994, 54:5380; Srivastana, M., et al., J. Biol. Chem., 2001, 276:15481).
# Groups of five mice each were inoculated s.c. with RIF-1 cells. The tumors were allowed to grow for 12 days to a size of 0.5 cm diameter, which was designated day 0. The mice were then given five i.p. injections every other day with vehicle, Dox 2.5 mg/kg, Dox 5.0 mg/kg, W-188 100 mg/kg, and Dox 5.0 mg/kg+W-188 100 mg/kg. The mice were weighed and the tumor size measured every day.
# The protocol was similar to that described for the W-188 experiment in Example 8, except that in this study, mice with established tumors received only three injections of W-143 or Dox every other day starting on day 0.
# [3] = test system: PW cells; assay: Subcellular distribution of W-188 in PW cells (absorbance at 380 nm); type: in vitro ADME, human
# Method: (§1) A method to measure the subcellular localization of this compound was developed by the inventors of the present invention. Because of its distinctive absorbance spectrum, W-188 can be detected in cell and tissue extracts by measuring absorbance at 380 nm, and quantitated relative to a standard curve constructed with known amounts of W-188. HL-60 and PW cells containing vector control or overexpressing Bcl-2 were incubated with W-188 followed by cell lysis and isolation of nuclei, mitochondria, and cytotol by differential centrifugation.
# (§2) Furthermore, it can be seen that nuclei and mitochondria from cells overexpressing Bcl-2 accumulated higher levels of W-188 than the vector control cells. These findings are consistent with the hypothesis that W-188 may counteract the protective effects of Bcl-2 mediated at both the mitochondria as well as the nucleus.
# [4] = test system: HL-60-Bcl-2 xenograft; assay: HL-60-Bcl-2 xenograft growth in nude mice; type: in vivo; conditions: single dose
# Method: Groups of five nude mice were injected s.c. with 5×10^6 HL-60-Bcl-2 cells, and tumors allowed to grow to a size of 7-10 mm. Tumors were then exposed to a single dose of γ-radiation, a single dose of W-188 or vehicle control, or a single dose of both γ-radiation and W-188. Tumor growth was monitored every other day, and when the tumor volume increased four fold, the animals were sacrificed.
# [5] = test system: HL-60 neo cells; assay: DNA fragmentation (release of 3H-labeled DNA fragments) in vector control HL-60 neo cells; type: cell-based, human; conditions: neo cell lines (HL-60 neo, PW neo); compound added to inducers
# Method: The present study evaluated the ability of W-188 to sensitize Bcl-2-overexpressing cells to induce apoptosis. The human myelogenous leukemia, HL-60, and the human B cell leukemia, PW, normally express very low levels of Bcl-2. As a model system, W-188 and various analogs and derivatives were tested in normal HL-60 and PW cells and in Bcl-2-transfected HL-60 and PW cells that overexpress high levels of Bcl-2 (see Gilbert et al., J. Cell Physiol., 1996, 171:299).
# As depicted in FIG. 4, HL-60 cells (Panel A) and PW cells (Panel B) cells were exposed to various apoptosis inducers: TNF at 5 ng/ml; etoposide at 20 μM; and UV at 0.08 J/cm^2. The release of 3H-labeled DNA fragments was measured after 5 h. Normal HL-60 and PW cells were equally sensitive to apoptosis inducers as compared with cells that were transfected with vector encoding neomycin resistance (HL-60 neo and PW neo) only. […] W-188 alone was nontoxic. The addition of W-188 to the neo cell lines caused a 1.5-2 fold increase in DNA fragmentation in response to the various apoptosis inducers.
# [6] = test system: HS-treated U937 cells; assay: DNA fragmentation in heat shock-treated U937 cells; type: cell-based
# Method: U937 cells received either no heat shock (HS) treatment or HS treatment at 42° C. for 30 min followed by recovery for 3 hr. The cells were then treated with etoposide or TNF with and without W-188, which alone was nontoxic. After 3 hr, DNA fragmentation was measured by release of ^3H-labeled DNA. As expected, U937 cells exposed to HS treatment were completely resistant to etoposide or TNF-induced DNA fragmentation (FIG. 7).
# [7] = test system: bFGF-treated U937 cells; assay: DNA fragmentation in bFGF-treated U937 cells; type: cell-based; conditions: 1 ng/ml bFGF 20 h pretreatment; FIG. 9
# Method: Another means by which cells may evade apoptosis is by treatment with various growth factors. To assess the ability of W-188 to reverse the apoptosis resistance induced by growth factors, U937 cells were treated ±1 ng/ml basic fibroblast growth factor (bFGF) for 20 h, then exposed to etoposide or TNF and DNA fragmentation measured.
# [8] = test system: HL-60 cells; assay: Subcellular distribution of W-188 in HL-60 cells (absorbance at 380 nm); type: in vitro ADME, human
# Method: as §1, §2
smiles,measurement,setting,value
"CCC1=C(C)C(/C=C2\NC(=O)C(C)=C2CC)=NC/1=C\c1[nH]c(/C=C2\NC(=O)C(C)=C2CC)c(C)c1CC [W-188, etiobiliverdin-IV]",Activation of AP24 (in words),[1]; HL-60-Bcl-2 and PW-Bcl-2 exposed to apoptosis inducers,did not activate AP24 unless they were also treated with W-188
same,"AP24 Activity (AAPVase, nmol/mg/hr)",[1]; HL-60 Bcl-2,124 nmol/mg/h
same,"AP24 Activity (AAPVase, nmol/mg/hr)",[1]; PW Bcl-2,129 nmol/mg/h
same,Effect on tumor growth,[2]; W-188 100 mg/kg + Dox 5.0 mg/kg,synergistically inhibited tumor growth
same,Tumor size relative to vehicle control,"[2]; W-188 100 mg/kg + Dox 5.0 mg/kg, day 12, p=0.0005",only half the size of the vehicle control
same,Effect on tumor growth,"[2]; W-188 100 mg/kg alone, data not shown",no effect on tumor growth
same,"W-188 (μg/mg protein), Cytosol",[3]; PW Bcl-2,0 μg/mg protein
same,"W-188 (μg/mg protein), Mitochondria",[3]; PW Bcl-2,4.5 μg/mg protein
same,"W-188 (μg/mg protein), Nuclei",[3]; PW Bcl-2,166 μg/mg protein
same,"W-188 (μg/mg protein), Cytosol",[3]; PW neo,0 μg/mg protein
same,"W-188 (μg/mg protein), Mitochondria",[3]; PW neo,2.5 μg/mg protein
same,"W-188 (μg/mg protein), Nuclei",[3]; PW neo,133 μg/mg protein
same,Effect on tumor growth,[4]; W-188 200 mg/kg alone,no significant effect
same,Effect on tumor growth,"[4]; W-188 400 mg/kg alone, p=0.005",significantly inhibited tumor growth
same,Effect on tumor growth,"[4]; γ-radiation + W-188 200 mg/kg, p=0.006",even greater inhibition of tumor growth compared to radiation alone
same,Increase in DNA fragmentation in response to apoptosis inducers,[5],1.5-2 fold
same,Etoposide or TNF-induced DNA fragmentation after HS treatment,"[6]; HS 42° C. 30 min, recovery 3 hr, 3 hr assay, FIG. 7",levels of etoposide or TNF-induced DNA fragmentation comparable to that seen in normal U937 cells
same,Toxicity of compound alone,[6]; W-188 alone,nontoxic
same,Reversal of bFGF-induced resistance to etoposide or TNF-induced DNA fragmentation,[7],completely reversed resistance to apoptosis
same,"W-188 (μg/mg protein), Cytosol",[8]; HL-60 Bcl-2,0.25 μg/mg protein
same,"W-188 (μg/mg protein), Mitochondria",[8]; HL-60 Bcl-2,10.0 μg/mg protein
same,"W-188 (μg/mg protein), Nuclei",[8]; HL-60 Bcl-2,186 μg/mg protein
same,"W-188 (μg/mg protein), Cytosol",[8]; HL-60 neo,0 μg/mg protein
same,"W-188 (μg/mg protein), Mitochondria",[8]; HL-60 neo,3.3 μg/mg protein
same,"W-188 (μg/mg protein), Nuclei",[8]; HL-60 neo,100 μg/mg protein

# Reference: patent publication US20030207933A1, “Compositions and methods for increasing the sensitivity of apoptosis-resistant tumor cells to inducers of apoptosis” (priority 2002, published 2003)
